Here are results for ten compounds from PubChem BioAssay (NCI).

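Briefly, cells in 96-well plates were exposed to five compound concentrations for 48 h, and endpoints were estimated by linear interpolation. GI50 is the concentration that inhibits growth by half. TGI marks complete inhibition of growth.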

Holding throughout (assay): NCI anticancer screen, dose series, 48 h
For assay [1], the system named is MDA-MB-435.
Assay [2] concerns HCT-116 colon.
Assay [3] concerns HT29 colon.
The subject of assay [4] is SK-MEL-28 melanoma.
Assay [5] has as its system SK-MEL-5 melanoma.
For assay [6], the system named is SN12C renal.
Assay [7] concerns ACHN renal.
Assay [8] has as its system NCI-H23 lung.

As for `CNC(=O)c1ccc(Nc2nc(OC3CCCC3)c3c(-c4ccc5nc(C)oc5c4)c[nH]c3n2)c(OC)c1`, the GI50 in assay [1] is > 100 µM; in assay [2], 0.409 µM; in assay [3], 4.99 µM; in assay [4] it was 41.4 µM; in assay [5] it was 2.12 µM; in assay [6], 1.32 µM. Also, the GI50 was 0.438 µM in assay [7] and 4.55 µM in assay [8]. Besides, the TGI in assay [1] was > 100 µM; in assay [2], > 60.5 µM; in assay [3] it was > 100 µM; in assay [4] it was > 100 µM; in assay [5] it was > 100 µM; in assay [6], > 100 µM. Moreover, the TGI in assay [7] and in assay [8] was > 100 µM in each case.
In the case of `C/C=C/C/C=C/CCC(=O)C1OC1C(N)=O` (stereo not drawn), the TGI is 28.3 µM in assay [1]; 28.2 µM in assay [2]; 33.1 µM in assay [3]; 30.6 µM in assay [4]; 28.3 µM in assay [5]; 39.8 µM in assay [6]. Moreover, the TGI in assay [7] came out at 28.5 µM; in assay [8], 28.2 µM.
For `C[C@]12CC[C@H]3[C@@H](CC=C4C[C@@H](O)CC[C@@]43C)[C@@H]1C/C(=C\c1cccc(OCCCn3ccnc3)c1)[C@@H]2O`, the GI50 in assay [1] is 9.99 µM; in assay [2], 5.99 µM; in assay [3], 3.85 µM; in assay [4], 12.2 µM; in assay [5], 6.26 µM; in assay [6] it was 15.8 µM. Further, the GI50 is 13.9 µM in assay [7] and 13 µM in assay [8]. In addition, the TGI in assay [1] is 42.6 µM; in assay [2], 21.1 µM; in assay [3], 18.1 µM; in assay [4], 29.1 µM; in assay [5], 20.4 µM; in assay [6] it was 38 µM. Further, the results for the TGI in assay [7] and in assay [8] were 31.3 µM and 30.1 µM, respectively.
Regarding `O=C(CSc1nc2sc3c(c2c(=O)n1-c1ccccc1)CCCCC3)N/N=C/c1ccc(F)cc1`, the GI50 in assay [1] was 10.3 µM; in assay [2], 2.34 µM; in assay [3], 2.4 µM; in assay [4], 3.24 µM; in assay [5], 2.93 µM; in assay [6], 1.99 µM. Besides, the GI50 in assay [7] was 4.76 µM; in assay [8], 3.29 µM. The TGI in assay [1] was > 100 µM; in assay [2] it was 12 µM; in assay [3] it was 7.04 µM; in assay [4], 13.1 µM; in assay [5], 9.56 µM; in assay [6] it was 6.9 µM. Also, the values for the TGI in assay [7] and in assay [8] were 34.6 µM and 13.9 µM, respectively.
For the compound `CC(=O)NC(Cc1c[nH]c2ccccc12)C(=O)O` (stereo not drawn), the TGI in assay [1], in assay [2], in assay [3], in assay [4], in assay [5] and in assay [6] was > 100 µM each time. Also, the TGI in assay [7] and in assay [8] was > 100 µM each time.
For the compound `O=C1C=CC(=O)N1c1ccc2c(c1)Cc1cc(NC(=O)C(F)(F)F)ccc1-2`, the TGI in assay [1] is 31.5 µM; in assay [2] it was 22.6 µM; in assay [3], 25.5 µM; in assay [4], 34.4 µM; in assay [5] it was > 100 µM; in assay [6], 32.1 µM. The results for the TGI in assay [7] and in assay [8] were 16.4 µM and 32.2 µM, respectively.
Take `C[C@]12CC[C@@H]3c4ccc(OCC(=O)O)cc4CC[C@H]3[C@@H]1CCC2=O`: the TGI in assay [1], in assay [2], in assay [3], in assay [4], in assay [5] and in assay [6] was > 100 µM in each case. The TGI in assay [7] and in assay [8] was > 100 µM throughout.
Turning to `C=C1C(=O)O[C@H]2[C@H]1CC/C(Cn1cc(Cn3ccc4cc(Cl)ccc43)nn1)=C\CC[C@@]1(C)O[C@@H]21`, the GI50 was 1.56 µM in assay [1]; 1.5 µM in assay [2]; 1.83 µM in assay [3]; 1.73 µM in assay [4]; 1.73 µM in assay [5]; 1.5 µM in assay [6]. In addition, the GI50 in assay [7] was 1.24 µM; in assay [8], 1.99 µM. Further, the TGI in assay [1] is 2.98 µM; in assay [2], 3.12 µM; in assay [3] it was 4.46 µM; in assay [4], 3.27 µM; in assay [5] it was 3.32 µM; in assay [6], 3.2 µM. In addition, the results for the TGI in assay [7] and in assay [8] were 2.5 µM and 4.46 µM, respectively.
As for `CCC(=O)Nc1ccc2c(c1)CN1C(=O)c3ccccc3C1=N2`, the GI50 in assay [1], in assay [2], in assay [3], in assay [4], in assay [5] and in assay [6] was > 100 µM in each case. The GI50 in assay [7] and in assay [8] was > 100 µM throughout. Further, the TGI in assay [1], in assay [2], in assay [3], in assay [4], in assay [5] and in assay [6] was > 100 µM each time. Besides, the TGI in assay [7] and in assay [8] was > 100 µM throughout.
Consider `CCSc1nc(=S)[nH]c2[nH]ncc12`, for which the GI50 is 63.1 µM in assay [1]; > 100 µM in assay [2]; > 100 µM in assay [3]; > 100 µM in assay [4]; 59.1 µM in assay [5]; > 100 µM in assay [6]. Further, the results for the GI50 in assay [7] and in assay [8] were 93.6 µM and > 100 µM, respectively. The TGI in assay [1], in assay [2], in assay [3], in assay [4], in assay [5] and in assay [6] was > 100 µM throughout. For the same compound, the TGI in assay [7] and in assay [8] was > 100 µM in each case.
